The test system of data set [1] is IMQ-induced psoriasis in BALB/c mice. The experiment in a line: Imiquimod-induced psoriasis in mice, ear histopathology. Type of data set: in vivo, mouse. The settings on record: Prednisolone 10 mg/kg PO daily; for inflammation of the ear (average histopathology grade) vs vehicle-IMQ group: statistically significant. Here is the method:
Female BALB/cAnNCrl mice (Charles River, age 8 to 10 weeks at study start) have been assigned to the following groups (treatment schedule):
In this experiment, two positive controls have been utilized. Firstly, Prednisolone at 10 mg/kg (vehicle: 1% Hydroxyethylcellulose, 0.25% Polysorbate 80, and 0.05% Antifoam in purified water) has been dosed daily and orally (group “Prednisolone”). Secondly, Dexamethasone has been administered at 0.5 mg/kg (vehicle: sterile 0.9% NaCl) on days 1, 4 and 7 via intravenous route.
On day 8, animals have been sacrificed and the tissue (ear) has been fixed in 10% neutral buffered formalin. For histopathology hematoxylin-and-eosin-stained sections (cross cut) have been prepared and microscopic evaluation on the collected tissues from all animals has been performed. Methods and end-points for histopathology were similarly described in the van der Fits (2009) paper in that inflammation, epidermal hyperplasia, epidermal hyperkeratosis (rather than parakeratosis) were observed and recorded for severity grade, whereby the respective methodology from Van der Fits et al. (The Journal of Immunology 2009, 182, P. 5836-5845) is hereby incorporated by reference. Histopathology grading scores were excluded for either skin or ear in animals with secondary inflammatory processes (full thickness epidermal ulcers). Scores were averaged by group and standard deviation and statistical significance were calculated. […] Formalin-fixed, paraffin embedded skin from the dorsal surface of the mouse (BALB/c) was stained with hematoxylin and eosin (H&E) stain and assessed microscopically. An important difference from the above reference and to describe in more detail the observations of the present study: Hyperkeratosis can be defined specifically as orthokeratotic (no retained nuclei) or parakeratotic (retained nuclei). Either can occur normally in various anatomical locations and depending on species; however, both conditions are well defined in particular disease states. The van der Fits paper describes their Imiquimod (IMQ)-induced psoriasis model as causing parakeratotic hyperkeratosis similar to what is seen in the human condition, and that was a defined end-point for this study. However, the Danilenko et al. (Veterinary Pathology 2008 45:563) has shown that many rodent psoriasis models have orthokeratotic hyperkeratosis. […] The more general term ‘hyperkeratosis’ was used for grading end-points and describe in the text what type was seen (primarily orthokeratotic).
1=MI=minimal 2=SL=slight 3=M0=moderate 4=MA=marked 5=SE=severe

For data set [2], the system named is endotoxins-induced uveitis albino rat model. The experiment in a line: Endotoxins-induced uveitis (EIU), single intravenous injection, clinical scoring 24 h after LPS. Type of data set: in vivo. As to conditions: 20 μg/eye sub-conjunctival, 24 hours after LPS. The arrangement: key to EIU clinical score, median: clinical score per eye, 0 to 4 scale. Here is the method: The aim of this study was to determine the effects of single intravenous injections of SEQ ID NO: 172 (0.015, 0.18, and 1.80 mg/kg) on the inflammatory response in an endotoxins-induced uveitis albino rat model and to compare these affects to those obtained with prior art JNK inhibitor of SEQ ID NO: 197 (2 mg/kg). As a further control served phosphate sodic dexamethasone.
Sixty (60) male Lewis rats were randomly divided into six (6) groups of ten (10) animals each. EIU was induced by footpad injection of lipopolysaccharide (LPS, 1 mg/kg). NaCl (0.9%), SEQ ID NO: 197 at 2 mg/kg and SEQ ID NO: 172 at three concentrations (1.80 mg/kg, 0.18 mg/kg and 0.015 mg/kg) were administered by intravenous injection. Phosphate sodic dexamethasone (20 μg/eye) was administered by sub-conjunctival injection in both eyes. 24 hours after LPS injection, inflammatory response was evaluated by clinical scoring.
The intensity of clinical ocular inflammation was scored on a scale from 0 to 4 for each eye: […]

For data set [3], the system named is established type II collagen arthritis in rats. The settings on record: Dex 0.05 mg/kg IV QD.
For another data set, the system named is Hela cells. Description: Internalization of TAT derived transporters, 24 hours, fluorescence of cell extracts (FIG. 6). The format is cell-based. The settings on record: Y in position 2. Here is the method: The transporter sequences analyzed correspond to SEQ ID NOs: 52-94 plus SEQ ID NOs: 45, 47, 46, 43 and 99 (FIG. 6a) and SEQ ID NOs: 100-147 (FIG. 6b). […] Hela cells were incubated 24 hours in 96 well plate with […] of the respective transporters. The cells were then washed twice with an acidic buffer (0.2M Glycin, 0.15M NaCl, pH 3.0) and twice with PBS. Cells were broken by the addition of RIPA lysis buffer. The relative amount of internalized peptide was then determined by reading the fluorescence intensity (Fusion Alpha plate reader; PerkinElmer) of each extract followed by background subtraction.
Hela cells were incubated 24 hours in 96 well plate with […] of the r3-L-TAT-derived transporters. The cells were then washed twice with an acidic buffer (0.2M Glycin, 0.15M NaCl, pH 3.0) and twice with PBS. Cells were broken by the addition of RIPA lysis buffer. The relative amount of internalized peptide was then determined by reading the fluorescence intensity (Fusion Alpha plate reader; PerkinElmer) of each extract followed by background subtraction

Square brackets hold non-standard residues; d marks the D form. Ends that are not written are not given here.

`C[C@]12C=CC(=O)C=C1CC[C@@H]1[C@@H]2[C@@H](O)C[C@@]2(C)[C@H]1CC[C@]2(O)C(=O)CO` [Prednisolone, reference compound]: in data set [1], the “epidermal hyperkeratosis of the ear, average grades vs vehicle-IMQ group” value is “minimally decreased average grades” and the “inflammation of the ear (average histopathology grade) vs vehicle-IMQ group” value was “decreased inflammation of the ear”. Also, the “epidermal hyperplasia of the ear vs vehicle-IMQ group” value in data set [1] (not statistically significant) is “below that of the vehicle-IMQ dose group”. The “inflammation of the ear (average histopathology grade) vs vehicle-IMQ group” value in data set [1] (listed as prednisolone) was “significant differences from the vehicle control group”.
With `C[C@@H]1C[C@H]2[C@@H]3CCC4=CC(=O)C=C[C@]4(C)[C@@]3(F)[C@@H](O)C[C@]2(C)[C@@]1(O)C(=O)CO` [dexamethasone, reference compound], in data set [2], the “EIU clinical score, mean±SEM” value is 0.8±0.2; the “EIU clinical score, median” value is listed as 0.5; the “reduction of clinical scores vs vehicle” value was determined as 79%. Besides, in data set [3], the “spleen weights relative to body weight vs disease controls” value is given as “significantly (p<0.05 by ANOVA) reduced” and the “thymus weights relative to body weight vs disease controls” value is “significantly (p<0.05 by ANOVA) reduced”.
Turning to “rYKRrQRRr ([dR]YKR[dR]QRR[dR]) [SEQ ID NO: 142]”, the “transporter activity and kinetics of transport (position scan)” value with Hela cells is “highest transporter activity”.

(Values after US20160115200A1, “New Use for JNK Inhibitor Molecules for Treatment of Various Diseases” (XIGEN INFLAMMATION LTD., priority 2013, published 2016).)
